Measured values: patent US8975250B2, “5 oxo-5,8-dihydropyrido[2,3-d]pyrimidine derivatives as CaMKII kinase inhibitors for treating cardiovascular diseases” (SANOFI, priority 2010, dated 2015)
Counter-ions that a name gives are not always drawn.

SMILES	melting point
CCN1CCN(c2cc(F)c(Nc3ncc4c(=O)c(C(N)=O)c(N)n(CC)c4n3)c(OC)c2)CC1 (as salt: HCl) [compound 28, 7-Amino-8-ethyl-2-[4-(4-ethylpiperazin-1-yl)-2-fluoro-6-methoxyphenylamino]-5-oxo-5,8-dihydropyrido[2,3-d]pyrimidine-6-carboxamide]	> 260 °C
CCn1c(N)c(C(N)=O)c(=O)c2cnc(Nc3ccc(CCN4CCCCC4)cc3)nc21 (as salt: HCl) [compound 65, 7-Amino-8-ethyl-5-oxo-2-[4-(2-piperid-1-ylethyl)phenylamino]-5,8-dihydropyrido[2,3-d]pyrimidine-6-carboxamide]	216 °C
NCCCn1c(N)c(C(N)=O)c(=O)c2cnc(Nc3ccc(N4CCOCC4)cc3)nc21 (as salt: HCl) [compound 81, 7-Amino-8-(3-aminopropyl)-2-(4-morpholin-4-ylphenylamino)-5-oxo-5,8-dihydropyrido[2,3-d]pyrimidine-6-carboxamide]	250 °C
COc1cc(C2CCNCC2)ccc1Nc1ncc2c(=O)c(C(N)=O)c(N)n(-c3ccccc3)c2n1 (as salt: HCl) [compound 113, 7-Amino-2-(2-methoxy-4-piperid-4-ylphenylamino)-5-oxo-8-phenyl-5,8-dihydropyrido[2,3-d]pyrimidine-6-carboxamide]	228 °C (dec.)
CCn1c(N)c(C(N)=O)c(=O)c2cnc(Nc3ccc([C@@H]4C[C@H]4N(C)C)cc3)nc21 (racemic) (as salt: HCl) [compound 97, (±)-7-Amino-2-trans-[4-(2-dimethylaminocyclopropyl)phenylamino]-8-ethyl-5-oxo-5,8-dihydropyrido[2,3-d]pyrimidine-6-carboxamide]	208 to 210 °C (dec.)
CCn1c(N)c(C(N)=O)c(=O)c2cnc(Nc3ccc(O)cc3)nc21 [compound 1, 7-Amino-8-ethyl-2-(4-hydroxyphenylamino)-5-oxo-5,8-dihydropyrido[2,3-d]pyrimidine-6-carboxamide]	> 260 °C
NC(=O)c1c(N)n(C2CCCC2)c2nc(Nc3ccc(N4CCOCC4)cc3)ncc2c1=O [compound 8, 7-Amino-8-cyclopentyl-2-(4-morpholin-4-ylphenylamino)-5-oxo-5,8-dihydropyrido[2,3-d]pyrimidine-6-carboxamide]	265 °C
CCn1c(N)c(C(N)=O)c(=O)c2cnc(Nc3cccc(N4CCOCC4)c3)nc21 [compound 17, 7-Amino-8-ethyl-2-(3-morpholin-4-ylphenylamino)-5-oxo-5,8-dihydropyrido[2,3-d]pyrimidine-6-carboxamide]	195 °C
CCn1c(N)c(C(N)=O)c(=O)c2cnc(Nc3ccc(CCO)cc3)nc21 [compound 55, 7-Amino-8-ethyl-2-[4-(2-hydroxyethyl)phenylamino]-5-oxo-5,8-dihydropyrido[2,3-d]pyrimidine-6-carboxamide]	289 °C

Second part, the compound after the results:

melting point	SMILES
226 to 228 °C	CCn1c(N)c(C(N)=O)c(=O)c2cnc(Nc3ccc(C4CCN(C5CC5)CC4)cc3OC)nc21 (as salt: HCl) [compound 29, 7-Amino-2-[4-(1-cyclopropylpiperid-4-yl)-2-methoxyphenylamino]-8-ethyl-5-oxo-5,8-dihydropyrido[2,3-d]pyrimidine-6-carboxamide]
204 to 206 °C	CCn1c(N)c(C(N)=O)c(=O)c2cnc(Nc3ccc(N4CCN(C5CC5)CC4)cc3OC(F)F)nc21 (as salt: HCl) [compound 33, 7-Amino-2-[4-(4-cyclopropylpiperazin-1-yl)-2-difluoromethoxyphenylamino]-8-ethyl-5-oxo-5,8-dihydropyrido[2,3-d]pyrimidine-6-carboxamide]
199 °C	CCn1c(N)c(C(N)=O)c(=O)c2cnc(Nc3ccc(C4CCN(CCC(F)(F)F)CC4)cc3OC)nc21 (as salt: HCl) [compound 35, 7-Amino-8-ethyl-2-{2-methoxy-4-[1-(3,3,3-trifluoropropyl)piperid-4-yl]phenylamino}-5-oxo-5,8-dihydropyrido[2,3-d]pyrimidine-6-carboxamide]
222 °C (dec.)	CCN1CCN(c2ccc(Nc3ncc4c(=O)c(C(N)=O)c(N)n(CC(C)(C)O)c4n3)c(OC)c2)CC1 (as salt: HCl) [compound 129, 7-Amino-2-[4-(4-ethylpiperazin-1-yl)-2-methoxyphenylamino]-8-(2-hydroxy-2-methylpropyl)-5-oxo-5,8-dihydropyrido[2,3-d]pyrimidine-6-carboxamide]
> 260 °C	COc1cc(C2CCN(CCC(F)(F)F)CC2)ccc1Nc1ncc2c(=O)c(C(N)=O)c(N)n(CC(C)(C)O)c2n1 (as salt: HCl) [compound 130, 7-Amino-8-(2-hydroxy-2-methylpropyl)-2-{2-methoxy-4-[1-(3,3,3-trifluoropropyl)piperid-4-yl]phenylamino}-5-oxo-5,8-dihydropyrido[2,3-d]pyrimidine-6-carboxamide]
170 °C (dec.)	COCCN1CCC(c2ccc(Nc3ncc4c(=O)c(C(N)=O)c(N)n(CC(C)(C)O)c4n3)c(OC)c2)CC1 (as salt: HCl) [compound 133, 7-Amino-8-(2-hydroxy-2-methylpropyl)-2-{2-methoxy-4-[1-(2-methoxyethyl)piperid-4-yl]phenylamino}-5-oxo-5,8-dihydropyrido[2,3-d]pyrimidine-6-carboxamide]
256 °C (dec.)	COc1cc(C2CCN(C)CC2)ccc1Nc1ncc2c(=O)c(C(N)=O)c(N)n(-c3ccccc3)c2n1 (as salt: HCl) [compound 134, 7-Amino-2-[2-methoxy-4-(1-methylpiperid-4-yl)phenylamino]-5-oxo-8-phenyl-5,8-dihydropyrido[2,3-d]pyrimidine-6-carboxamide]
